From patent publication US11673897B2, “Compounds for the treatment of kinase-dependent disorders” (Exelixis, Inc., priority 2018, dated 2023)

What was measured:
[1] = molecular target: Met (Homo sapiens (Human), UniProt P08581); test: Human Met kinase assay (33P radiometric, KinaseProfiler); format: biochemical; settings: 10 μM ATP, read-out: c-Met IC50
Description: (§1) Kinase activity and compound inhibition were investigated using the ^33P-Phosphoryl transfer radiometric kinase assay, performed using the KinaseProfiler™ service of Eurofins Pharma Discovery Services UK Limited. Dose-response experiments were performed using nine compound concentrations in a 96-well microtiter plate. For each assay, all compounds were prepared to a 50× final assay concentration (50 μM) in 100% DMSO, then diluted in a half-log series, with the final top concentration at 1 μM. This working stock of the compound was added to the assay well as the first component in the reaction, followed by the remaining components as detailed in the following assay protocols below. The positive control wells (100% kinase activity) contain all components of the reaction including 2% DMSO (control for solvent effects), except the compound of interest. Blank wells contain all components of the reaction, with the reference inhibitor, staurosporine. This reference compound was used to abolish kinase activity and generated the 0% kinase activity base-line. IC50 values were calculated by nonlinear regression analysis using the sigmoidal dose-response (variable slope) curve fit on XLFit version 5.3 (ID Business Solutions).
Human Met (residues R974-S1390 with A1209G and V1290L, 3.4 nM) was incubated with 8 mM MOPS pH 7.0, 0.2 mM EDTA, 250 μM KKKGQEEEYVFIE (SEQ ID NO. 45), 1 mM sodium orthovanadate, 5 mM […], 10 mM magnesium acetate, and 10 μM [γ-33P-ATP]. The reaction was initiated by the addition of the Mg/ATP mix. After incubation for 40 minutes at room temperature, the reaction was stopped by the addition of phosphoric acid to a concentration of 0.5%. A reaction aliquot of 10 μL was then spotted onto a P30 filtermat and washed four times for 4 minutes in 0.425% phosphoric acid and once in methanol prior to drying and scintillation counting. Incorporated 33P was measured using the Wallac Microbeta scintillation counter (Perkin Elmer).

[2] = molecular target: Mer (Homo sapiens (Human), UniProt Q12866); test: Human Mer kinase assay (33P radiometric, KinaseProfiler); format: biochemical; settings: 10 μM ATP
Description: as §1
Human Mer (residues R557-E882 with H628Q and R794A, 0.7 nM) was incubated with 8 mM MOPS pH 7.0, 0.2 mM EDTA, 30 mM NaCl, 250 μM GGMEDIYFEFMGGKKK (SEQ ID NO. 44), 10 mM magnesium acetate, and 10 μM [γ-^33P-ATP]. The reaction was initiated by the addition of the Mg/ATP mix. After incubation for 40 minutes at room temperature, the reaction was stopped by the addition of phosphoric acid to a concentration of 0.5%. A reaction aliquot of 10 μL was then spotted onto a P30 filtermat and washed four times for 4 minutes in 0.425% phosphoric acid and once in methanol prior to drying and scintillation counting. Incorporated ^33P was measured using the Wallac Microbeta scintillation counter (Perkin Elmer).

[3] = molecular target: Human Axl (Homo sapiens (Human), UniProt P30530, Q764R); test: Human AXL kinase assay (33P radiometric, KinaseProfiler); format: biochemical; settings: 10 μM ATP
Description: as §1
Human Axl (residues H473-A894 with Q764R, 161 nM) was incubated with 8 mM MOPS pH 7.0, 0.2 mM EDTA, 250 μM KKSRGDYMTMQIG (SEQ ID NO. 43), 10 mM magnesium acetate and 10 μM [γ-33P-ATP]. The reaction was initiated by the addition of the Mg/ATP mix. After incubation for 40 minutes at room temperature, the reaction was stopped by the addition of phosphoric acid to a concentration of 0.5%. A reaction aliquot of 10 μL was then spotted onto a P30 filtermat and washed four times for 4 minutes in 0.425% phosphoric acid and once in methanol prior to drying and scintillation counting. Incorporated ^33P was measured using the Wallac Microbeta scintillation counter (Perkin Elmer).

[4] = molecular target: AXL (Homo sapiens (Human), UniProt P30530); test: AXL autophosphorylation ELISA in A-172 cells; format: cell-based; settings: cellular, Gas6-stimulated, phospho-AXL ELISA
Procedure, shortened: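 A-172 glioblastoma cells, serum-starved 24 h, took compounds for 1 h (8-point curve, 0.3% DMSO) before 15 min stimulation with 1 μg/mL recombinant human Gas6. Lysate phospho-AXL measured by ELISA against a phospho-AXL standard, normalized to DMSO (100%) and reference inhibitor (0%); IC50 from 4-parameter logistic fit.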

[5] = molecular target: KDR (Homo sapiens (Human), UniProt P35968); test: KDR autophosphorylation ELISA in HUVEC cells; format: cell-based; settings: cellular, VEGF165-stimulated, phospho-KDR ELISA
Procedure, shortened: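 HUVECs grown 24 h at 37 °C, then serum-starved 24 h, were preincubated 1 h with an 8-point compound series (0.3% DMSO) and stimulated with 100 ng/mL human VEGF165 for 5 min. Phospho-KDR in lysates was measured by sandwich ELISA against a phospho-KDR standard; IC50 from 4-parameter logistic fit.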

Chain of Mer (Q12866 557-882): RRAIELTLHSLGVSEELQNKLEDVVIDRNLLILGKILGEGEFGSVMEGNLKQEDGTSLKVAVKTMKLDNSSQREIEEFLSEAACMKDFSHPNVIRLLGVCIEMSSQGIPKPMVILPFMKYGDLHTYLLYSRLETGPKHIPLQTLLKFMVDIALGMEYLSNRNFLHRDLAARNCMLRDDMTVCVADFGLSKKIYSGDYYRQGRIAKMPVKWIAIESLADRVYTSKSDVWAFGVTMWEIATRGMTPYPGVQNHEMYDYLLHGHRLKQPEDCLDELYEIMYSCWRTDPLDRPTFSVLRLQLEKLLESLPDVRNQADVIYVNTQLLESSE
Chain of Human Axl (P30530 473-894 Q764R): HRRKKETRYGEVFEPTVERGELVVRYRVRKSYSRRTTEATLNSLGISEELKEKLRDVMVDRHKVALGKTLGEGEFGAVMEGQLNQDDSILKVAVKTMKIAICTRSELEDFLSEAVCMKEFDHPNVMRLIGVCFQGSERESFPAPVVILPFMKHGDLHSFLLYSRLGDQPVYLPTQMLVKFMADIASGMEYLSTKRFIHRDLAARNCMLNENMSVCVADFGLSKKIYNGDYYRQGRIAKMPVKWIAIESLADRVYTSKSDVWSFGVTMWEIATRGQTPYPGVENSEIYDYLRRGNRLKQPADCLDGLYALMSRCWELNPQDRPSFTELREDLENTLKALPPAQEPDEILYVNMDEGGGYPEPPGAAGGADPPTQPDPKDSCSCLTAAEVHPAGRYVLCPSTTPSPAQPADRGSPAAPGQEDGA
Chain of AXL (P30530 26-894): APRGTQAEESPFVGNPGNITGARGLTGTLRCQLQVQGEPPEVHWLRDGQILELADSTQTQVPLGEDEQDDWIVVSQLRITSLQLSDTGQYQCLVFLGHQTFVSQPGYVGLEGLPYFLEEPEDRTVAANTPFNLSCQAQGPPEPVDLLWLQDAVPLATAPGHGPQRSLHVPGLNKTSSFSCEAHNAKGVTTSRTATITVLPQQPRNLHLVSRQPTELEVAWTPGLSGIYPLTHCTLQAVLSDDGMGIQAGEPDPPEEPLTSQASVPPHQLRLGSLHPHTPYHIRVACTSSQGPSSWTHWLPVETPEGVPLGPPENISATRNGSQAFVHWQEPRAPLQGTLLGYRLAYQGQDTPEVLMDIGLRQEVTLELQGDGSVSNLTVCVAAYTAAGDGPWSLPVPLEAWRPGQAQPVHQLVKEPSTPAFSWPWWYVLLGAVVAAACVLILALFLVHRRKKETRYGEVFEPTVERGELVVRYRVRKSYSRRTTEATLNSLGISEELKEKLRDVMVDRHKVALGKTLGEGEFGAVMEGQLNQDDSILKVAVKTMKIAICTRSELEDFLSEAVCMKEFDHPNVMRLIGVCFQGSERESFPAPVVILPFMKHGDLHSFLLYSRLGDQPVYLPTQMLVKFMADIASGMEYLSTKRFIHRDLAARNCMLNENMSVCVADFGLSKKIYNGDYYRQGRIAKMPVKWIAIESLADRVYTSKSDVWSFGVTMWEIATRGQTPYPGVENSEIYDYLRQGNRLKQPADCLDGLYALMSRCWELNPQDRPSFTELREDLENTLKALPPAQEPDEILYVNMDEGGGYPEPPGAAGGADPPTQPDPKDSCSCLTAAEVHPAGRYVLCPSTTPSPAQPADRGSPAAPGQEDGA
Chain of KDR (P35968 20-1356): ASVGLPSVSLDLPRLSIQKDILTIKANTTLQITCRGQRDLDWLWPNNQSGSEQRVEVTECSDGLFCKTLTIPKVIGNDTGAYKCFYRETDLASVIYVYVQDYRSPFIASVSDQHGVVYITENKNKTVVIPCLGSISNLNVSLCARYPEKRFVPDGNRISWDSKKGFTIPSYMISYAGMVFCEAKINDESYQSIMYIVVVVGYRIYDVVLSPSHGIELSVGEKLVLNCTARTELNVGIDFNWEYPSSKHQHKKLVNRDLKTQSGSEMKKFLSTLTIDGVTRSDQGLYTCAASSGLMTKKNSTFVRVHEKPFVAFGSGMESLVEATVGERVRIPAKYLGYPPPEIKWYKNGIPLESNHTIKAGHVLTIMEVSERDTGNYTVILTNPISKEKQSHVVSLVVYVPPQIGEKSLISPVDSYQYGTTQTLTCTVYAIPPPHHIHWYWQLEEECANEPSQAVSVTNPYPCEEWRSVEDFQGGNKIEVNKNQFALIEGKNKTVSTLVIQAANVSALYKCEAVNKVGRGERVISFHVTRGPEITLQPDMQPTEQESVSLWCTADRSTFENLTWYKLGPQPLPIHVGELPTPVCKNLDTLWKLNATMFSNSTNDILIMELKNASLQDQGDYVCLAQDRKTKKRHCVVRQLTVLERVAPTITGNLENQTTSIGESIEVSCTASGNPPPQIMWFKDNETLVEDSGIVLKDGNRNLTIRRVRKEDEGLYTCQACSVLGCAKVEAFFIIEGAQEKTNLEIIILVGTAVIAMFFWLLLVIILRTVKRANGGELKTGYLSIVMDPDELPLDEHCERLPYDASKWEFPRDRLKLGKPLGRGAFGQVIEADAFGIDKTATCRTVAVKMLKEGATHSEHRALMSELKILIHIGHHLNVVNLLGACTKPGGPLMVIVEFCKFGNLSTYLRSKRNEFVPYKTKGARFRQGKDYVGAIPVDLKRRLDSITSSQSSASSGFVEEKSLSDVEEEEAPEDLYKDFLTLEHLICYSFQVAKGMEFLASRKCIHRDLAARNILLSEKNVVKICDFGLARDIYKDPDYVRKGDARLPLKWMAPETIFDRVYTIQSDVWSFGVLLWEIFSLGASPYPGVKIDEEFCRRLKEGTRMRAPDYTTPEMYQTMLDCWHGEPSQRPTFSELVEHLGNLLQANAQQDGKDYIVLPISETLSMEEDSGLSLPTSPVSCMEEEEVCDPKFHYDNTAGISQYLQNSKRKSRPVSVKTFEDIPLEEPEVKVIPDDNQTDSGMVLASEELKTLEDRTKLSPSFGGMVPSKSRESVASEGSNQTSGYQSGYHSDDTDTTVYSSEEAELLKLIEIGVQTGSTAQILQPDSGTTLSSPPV

Compound: COc1cc2nccc(Oc3ncc(NC(=O)C4(C(=O)Nc5ccc(F)cc5)CC4)cc3Cl)c2cc1C(=O)O [Compound 14, 4-[3-Chloro-5-[[1-[(4-fluorophenyl)carbamoyl]cyclopropanecarbonyl]amino]pyridin-2-yl]oxy-7-methoxyquinoline-6-carboxylic acid]
- IC50 [1]: 10 to 100 nM
- IC50 [2]: 100 to 1000 nM
- IC50 [3]: 100 to 1000 nM
- IC50 [4]: > 300 nM
- IC50 [5]: > 300 nM
